Test results from BindingDB's records for patent US11912682 (Monte Rosa Therapeutics, 2024).

Biological target: Protein cereblon (Homo sapiens, UniProt Q96SW2)
Assay: Compound Activity by Fluorescent Polarization Assay
Protocol: Compound activity was monitored in a fluorescence polarization (FP) homogeneous assay using 1-[5-({2-[2-(2-{[2-(2,6-dioxopiperidin-3-yl)-1,3-dioxo-2,3-dihydro-1H-isoindol-4-yl]oxy}acetamido)ethoxy]ethyl}carbamoyl)pentyl]-3,3-dimethyl-2-[(1E,3E)-5-[(2E)-1,3,3-trimethyl-5-sulfo-2,3-dihydro-1H-indol-2-ylidene]penta-1,3-dien-1-yl]-3H-indol-1-ium-5-sulfonate as a fluorescent probe. Unless otherwise stated, all reagents were purchased from Sigma Aldrich. Enzymatic reactions were conducted in Perkin-Elmer Black 384 well ProxiPlate Plus (catalogue no. 6008269) in 10 μL total volume. Full length wild-type cereblon CRBN (80.0 nM, 10 μL) was incubated in assay buffer containing 20 mM HEPES (pH 8.0), […], 0.5 mM TCEP and 0.05% Tween 20 in the presence or absence of compound (300 nL). Inhibitors were stored as 10 mM DMSO stocks in an inert environment (low humidity, dark, low oxygen, room temperature) using the Storage Pod System. Compounds and DMSO were dispensed using the Echo ESXX (Labcyte Inc. USA) to give concentrations from 300 to 0.937 or 3000 to 9.3 nM in a 12 data point curve. […] FP was measured after a period of 12 hours using a Pherastar plate reader (BMG Labtech, Germany) exciting at 590 nm and measuring the amount of parallel and perpendicular light at 675 nm. […]

Chain of Protein cereblon (Q96SW2 whole entry): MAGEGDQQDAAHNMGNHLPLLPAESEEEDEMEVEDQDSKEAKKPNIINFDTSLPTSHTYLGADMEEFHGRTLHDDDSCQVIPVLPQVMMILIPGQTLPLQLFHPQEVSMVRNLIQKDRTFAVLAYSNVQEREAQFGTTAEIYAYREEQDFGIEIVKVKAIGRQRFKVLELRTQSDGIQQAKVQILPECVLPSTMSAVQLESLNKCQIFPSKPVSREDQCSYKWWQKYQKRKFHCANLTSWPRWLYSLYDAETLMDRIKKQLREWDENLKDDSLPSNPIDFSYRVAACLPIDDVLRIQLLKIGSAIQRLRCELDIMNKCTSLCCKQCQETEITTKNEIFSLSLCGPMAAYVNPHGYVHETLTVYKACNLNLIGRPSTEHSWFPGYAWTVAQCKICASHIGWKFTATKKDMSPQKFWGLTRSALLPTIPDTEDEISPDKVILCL

IC50: > 1700 nM
Compound: O=C1CCC(N2Cc3ccc(COC(=O)Nc4cc(Cl)cc(OC(F)(F)F)c4)cc3C2=O)C(=O)N1 (stereo unspecified) [US11912682, Compound 11]
